# Reference: patent publication US6969718B2, “17-β hydroxysteroid dehydrogenase type 3 inhibitors for the treatment of androgen dependent diseases” (Schering Corporation, priority 2001, dated 2005)
row,SMILES,melting point [°C]
1,CC(C)[C@H]1CN(C(C)c2ccc(Cl)cc2)CCN1C(=O)CC1CCN(C(N)=O)CC1 (stereo partly drawn) [Example 101],76 to 82
2,CC(=O)N1CCC(CC(=O)N2CCN(Cc3ccc(Cl)c(Cl)c3)C[C@@H]2C(C)(C)C)CC1 [Example 104],49 to 53
3,CC(=O)N1CCC(CC(=O)N2CCN(Cc3ccccc3-c3ccc(Cl)c(Cl)c3)C[C@@H]2C(C)(C)C)CC1 [Example 106],62.1 to 63.6
4,CC(=O)N1CCC(CC(=O)N2CCN(Cc3ccc(-c4ccc(Cl)c(Cl)c4)cn3)C[C@@H]2C(C)(C)C)CC1 [Example 107],145.7 to 147
5,CC(=O)N1CCC(CC(=O)N2CCN(C(CC3CC3)c3ccc(Cl)c(Cl)c3)C[C@@H]2C(C)(C)C)CC1 (stereo partly drawn) [Example 109],61 to 63
6,CC(=O)N1CCC(CC(=O)N2CCN(C(CC3CC3)c3ccc(Cl)c(Cl)c3)C[C@@H]2C(C)(C)C)CC1 (stereo partly drawn) [Example 110],61 to 65
7,CC(=O)N1CCC(CC(=O)N2CCN(C(CCC(F)(F)F)c3ccc(C(F)(F)F)cc3)C[C@@H]2C(C)(C)C)CC1 (stereo partly drawn) [Example 111],61 to 63
8,CC(C)(C)[C@H]1CN(Cc2ccc(Cl)c(Cl)c2)CCN1C(=O)CC1CCN(C(N)=O)CC1 [Example 113],80 to 85
9,CC(C)(C)[C@H]1CN(Cc2ccccc2-c2ccc(Cl)c(Cl)c2)CCN1C(=O)CC1CCN(C(N)=O)CC1 [Example 114],98.8 to 102.4
10,CC(C)(C)[C@H]1CN(Cc2ccc(-c3ccc(Cl)c(Cl)c3)cn2)CCN1C(=O)CC1CCN(C(N)=O)CC1 [Example 115],95.2 to 98
11,CC(C)(C)[C@H]1CN(C(CC2CC2)c2ccc(Cl)c(Cl)c2)CCN1C(=O)CC1CCN(C(N)=O)CC1 (stereo partly drawn) [Example 116],91 to 94
12,CC(C)(C)[C@H]1CN(C(CCC(F)(F)F)c2ccc(C(F)(F)F)cc2)CCN1C(=O)CC1CCN(C(N)=O)CC1 (stereo partly drawn) [Example 117],76 to 80
